# Legend:
# Type in all cases: in vivo
# [1] = test system: barnyardgrass (Echinochloa crus-galli); test: Test A pre-/postemergence plant response
# Summary of the method: (§1)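 Visually rated 0–100 injury (100 = complete control) versus untreated plants, ~10 days in greenhouse. Application pre- (soil spray, loam/sand) and postemergence (2–10 cm, 1–2 leaf stage), same timepoint.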
# [2] = test system: corn (Zea mays); test: Test A pre-/postemergence plant response
# Summary of the method: as §1
# [3] = test system: giant foxtail (Setaria faberii); test: Test A pre-/postemergence plant response
# Summary of the method: as §1
# [4] = test system: large crabgrass (Digitaria sanguinalis); test: Test A pre-/postemergence plant response
# Summary of the method: as §1
# [5] = test system: morningglory (Ipomoea spp.); test: Test A pre-/postemergence plant response
# Summary of the method: as §1
# [6] = test system: pigweed (Amaranthus retroflexus); test: Test A pre-/postemergence plant response
# Summary of the method: as §1
# [7] = test system: velvetleaf (Abutilon theophrasti); test: Test A pre-/postemergence plant response
# Summary of the method: as §1
# [8] = test system: wheat (Triticum aestivum); test: Test A pre-/postemergence plant response
# Summary of the method: as §1
# [9] = test system: canarygrass (Phalaris minor); test: Test B postemergence plant response
# Summary of the method: (§2)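 Plants at the 1- to 4-leaf stage (2 to 18 cm tall), grown in pots of peat moss/vermiculite medium with wetting agent and starter nutrients, received postemergence applications of test chemicals. After 13 to 15 days in a greenhouse, injury was rated visually against untreated controls on a 0 (no effect) to 100 (complete control) scale.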
# [10] = test system: chickweed (Stellaria media); test: Test B postemergence plant response
# Summary of the method: as §2
# [11] = test system: windgrass (Apera spica-venti); test: Test B postemergence plant response
# Summary of the method: as §2
# [12] = test system: winter barley (Hordeum vulgare); test: Test B postemergence plant response
# Summary of the method: as §2
# [13] = Postemergence, 125 g ai/ha, visual injury, 0 to 100 scale (0 no effect, 100 complete control), approx. ten days
# [14] = Postemergence, 500 g ai/ha, 0 to 100 scale, 0 = no effect, 100 = complete control, approx. ten days
# [15] = Preemergence, 125 g ai/ha, 0 to 100 scale, 0 = no effect, 100 = complete control
# [16] = Preemergence, 500 g ai/ha, visual injury, 0 to 100 scale (0 no effect, 100 complete control), approx. ten days
# [17] = 31 g ai/ha, postemergence, scale 0 to 100, 0 is no effect, 100 is complete control
# [18] = Postemergence, 62 g ai/ha, scale 0 (no effect) to 100 (complete control), 13 to 15 days
# [19] = Postemergence, 125 g ai/ha, visual rating after 13 to 15 days, scale 0 (no effect) to 100 (complete control)
# [20] = Postemergence, 250 g ai/ha, scale 0 to 100 (0 no effect, 100 complete control)
smiles,measurement,setting,value
Cn1c(-c2ccccc2)ncc(C(=O)C2=C(O)CCCC2=O)c1=O [Compound 55],Barnyardgrass plant response rating,[1]; [13],50
same,"Plant response rating, Barnyardgrass",[1]; [14],70
same,"Plant response rating, Barnyardgrass",[1]; [15],0
same,"Plant response rating, Barnyardgrass",[1]; [16],10
same,Corn plant response rating,[2]; [13],0
same,"Plant response rating, Corn",[2]; [14],10
same,"Plant response rating, Corn",[2]; [15],0
same,"Plant response rating, Corn",[2]; [16],0
same,"Foxtail, Giant plant response rating",[3]; [13],20
same,"Plant response rating, Foxtail, Giant",[3]; [14],60
same,"Plant response rating, Foxtail, Giant",[3]; [15],0
same,"Plant response rating, Foxtail, Giant",[3]; [16],0
same,"Crabgrass, Large plant response rating",[4]; [13],70
same,"Plant response rating, Crabgrass, Large",[4]; [14],90
same,"Plant response rating, Crabgrass, Large",[4]; [15],0
same,"Plant response rating, Crabgrass, Large",[4]; [16],50
same,Morningglory plant response rating,[5]; [13],90
same,"Plant response rating, Morningglory",[5]; [14],90
same,"Plant response rating, Morningglory",[5]; [15],30
same,"Plant response rating, Morningglory",[5]; [16],60
same,Pigweed plant response rating,[6]; [13],90
same,"Plant response rating, Pigweed",[6]; [14],100
same,"Plant response rating, Pigweed",[6]; [15],50
same,"Plant response rating, Pigweed",[6]; [16],100
same,Velvetleaf plant response rating,[7]; [13],100
same,"Plant response rating, Velvetleaf",[7]; [14],100
same,"Plant response rating, Velvetleaf",[7]; [15],60
same,"Plant response rating, Velvetleaf",[7]; [16],60
same,Wheat plant response rating,[8]; [13],0
same,"Plant response rating, Wheat",[8]; [14],0
same,"Plant response rating, Wheat",[8]; [15],0
same,"Plant response rating, Wheat",[8]; [16],0
same,"Plant response rating, Canarygrass",[9]; [17],0
same,"Plant response rating, Canarygrass",[9]; [18],0
same,"Plant response rating, Canarygrass",[9]; [19],0
same,"Plant response rating, Canarygrass",[9]; [20],0
same,"Plant response rating, Chickweed",[10]; [17],65
same,"Plant response rating, Chickweed",[10]; [18],75
same,"Plant response rating, Chickweed",[10]; [19],80
same,"Plant response rating, Chickweed",[10]; [20],90
same,"Plant response rating, Windgrass",[11]; [17],0
same,"Plant response rating, Windgrass",[11]; [18],0
same,"Plant response rating, Windgrass",[11]; [19],0
same,"Plant response rating, Windgrass",[11]; [20],5
same,"Plant response rating, Barley",[12]; [17],0
same,"Plant response rating, Barley",[12]; [18],0
same,"Plant response rating, Barley",[12]; [19],0
same,"Plant response rating, Barley",[12]; [20],0
O=C1CCCC(O)=C1C(=O)c1cnc(-c2ccsc2)n(-c2ccccc2)c1=O [Compound 56],Barnyardgrass plant response rating,[1]; [13],90
same,"Plant response rating, Barnyardgrass",[1]; [14],90
same,"Plant response rating, Barnyardgrass",[1]; [15],50
same,"Plant response rating, Barnyardgrass",[1]; [16],90
same,Corn plant response rating,[2]; [13],10
same,"Plant response rating, Corn",[2]; [14],50
same,"Plant response rating, Corn",[2]; [15],0
same,"Plant response rating, Corn",[2]; [16],0
same,"Foxtail, Giant plant response rating",[3]; [13],80
same,"Plant response rating, Foxtail, Giant",[3]; [14],90
same,"Plant response rating, Foxtail, Giant",[3]; [15],70
same,"Plant response rating, Foxtail, Giant",[3]; [16],90
same,"Crabgrass, Large plant response rating",[4]; [13],80
same,"Plant response rating, Crabgrass, Large",[4]; [14],90
same,"Plant response rating, Crabgrass, Large",[4]; [15],80
same,"Plant response rating, Crabgrass, Large",[4]; [16],90
same,Morningglory plant response rating,[5]; [13],90
same,"Plant response rating, Morningglory",[5]; [14],100
same,"Plant response rating, Morningglory",[5]; [15],50
same,"Plant response rating, Morningglory",[5]; [16],90
same,Pigweed plant response rating,[6]; [13],90
same,"Plant response rating, Pigweed",[6]; [14],100
same,"Plant response rating, Pigweed",[6]; [15],90
same,"Plant response rating, Pigweed",[6]; [16],100
same,Velvetleaf plant response rating,[7]; [13],100
same,"Plant response rating, Velvetleaf",[7]; [14],100
same,"Plant response rating, Velvetleaf",[7]; [15],80
same,"Plant response rating, Velvetleaf",[7]; [16],100
same,Wheat plant response rating,[8]; [13],0
same,"Plant response rating, Wheat",[8]; [14],0
same,"Plant response rating, Wheat",[8]; [15],0
same,"Plant response rating, Wheat",[8]; [16],0
same,"Plant response rating, Canarygrass",[9]; [17],0
same,"Plant response rating, Canarygrass",[9]; [18],30
same,"Plant response rating, Canarygrass",[9]; [19],40
same,"Plant response rating, Canarygrass",[9]; [20],40
same,"Plant response rating, Chickweed",[10]; [17],90
same,"Plant response rating, Chickweed",[10]; [18],95
same,"Plant response rating, Chickweed",[10]; [19],98
same,"Plant response rating, Chickweed",[10]; [20],98
same,"Plant response rating, Windgrass",[11]; [17],30
same,"Plant response rating, Windgrass",[11]; [18],40
same,"Plant response rating, Windgrass",[11]; [19],60
same,"Plant response rating, Windgrass",[11]; [20],85
same,"Plant response rating, Barley",[12]; [17],0
same,"Plant response rating, Barley",[12]; [18],10
same,"Plant response rating, Barley",[12]; [19],30
O=C1CCCC(O)=C1C(=O)c1cnc(-c2ccccc2)n(CC2CCCO2)c1=O (stereo not drawn) [Compound 59],Barnyardgrass plant response rating,[1]; [13],90
same,"Plant response rating, Barnyardgrass",[1]; [14],90
same,"Plant response rating, Barnyardgrass",[1]; [15],40
same,"Plant response rating, Barnyardgrass",[1]; [16],90
same,Corn plant response rating,[2]; [13],10
same,"Plant response rating, Corn",[2]; [14],30
same,"Plant response rating, Corn",[2]; [15],0
same,"Plant response rating, Corn",[2]; [16],0
same,"Foxtail, Giant plant response rating",[3]; [13],80
same,"Plant response rating, Foxtail, Giant",[3]; [14],90
same,"Plant response rating, Foxtail, Giant",[3]; [15],50
same,"Plant response rating, Foxtail, Giant",[3]; [16],80
same,"Crabgrass, Large plant response rating",[4]; [13],90
same,"Plant response rating, Crabgrass, Large",[4]; [14],100
same,"Plant response rating, Crabgrass, Large",[4]; [15],90
same,"Plant response rating, Crabgrass, Large",[4]; [16],100
same,Morningglory plant response rating,[5]; [13],100
same,"Plant response rating, Morningglory",[5]; [14],100
same,"Plant response rating, Morningglory",[5]; [16],90
same,Pigweed plant response rating,[6]; [13],100
same,"Plant response rating, Pigweed",[6]; [14],100
same,"Plant response rating, Pigweed",[6]; [15],90
same,"Plant response rating, Pigweed",[6]; [16],100
same,Velvetleaf plant response rating,[7]; [13],100
same,"Plant response rating, Velvetleaf",[7]; [14],100
same,"Plant response rating, Velvetleaf",[7]; [15],100
same,"Plant response rating, Velvetleaf",[7]; [16],100
same,Wheat plant response rating,[8]; [13],0
same,"Plant response rating, Wheat",[8]; [14],10
same,"Plant response rating, Wheat",[8]; [15],0
same,"Plant response rating, Wheat",[8]; [16],0
same,"Plant response rating, Canarygrass",[9]; [17],5
same,"Plant response rating, Canarygrass",[9]; [18],5
same,"Plant response rating, Canarygrass",[9]; [19],50
same,"Plant response rating, Canarygrass",[9]; [20],70
same,"Plant response rating, Chickweed",[10]; [17],85
same,"Plant response rating, Chickweed",[10]; [18],98
same,"Plant response rating, Chickweed",[10]; [19],98
same,"Plant response rating, Chickweed",[10]; [20],100
same,"Plant response rating, Windgrass",[11]; [17],20
same,"Plant response rating, Windgrass",[11]; [18],60
same,"Plant response rating, Windgrass",[11]; [19],60
same,"Plant response rating, Windgrass",[11]; [20],70
same,"Plant response rating, Barley",[12]; [17],0
same,"Plant response rating, Barley",[12]; [18],0
same,"Plant response rating, Barley",[12]; [19],10
same,"Plant response rating, Barley",[12]; [20],10
CCCCc1ncc(C(=O)C2=C(O)CCCC2=O)c(=O)n1-c1cccc(C)c1 [Compound 63],Barnyardgrass plant response rating,[1]; [13],70
same,"Plant response rating, Barnyardgrass",[1]; [14],90
same,"Plant response rating, Barnyardgrass",[1]; [15],10
same,"Plant response rating, Barnyardgrass",[1]; [16],90
same,Corn plant response rating,[2]; [13],10
same,"Plant response rating, Corn",[2]; [14],50
same,"Plant response rating, Corn",[2]; [15],0
same,"Plant response rating, Corn",[2]; [16],0
same,"Foxtail, Giant plant response rating",[3]; [13],60
same,"Plant response rating, Foxtail, Giant",[3]; [14],80
same,"Plant response rating, Foxtail, Giant",[3]; [15],50
same,"Plant response rating, Foxtail, Giant",[3]; [16],80
same,"Crabgrass, Large plant response rating",[4]; [13],80
same,"Plant response rating, Crabgrass, Large",[4]; [14],90
same,"Plant response rating, Crabgrass, Large",[4]; [15],90
same,"Plant response rating, Crabgrass, Large",[4]; [16],100
same,Morningglory plant response rating,[5]; [13],100
same,"Plant response rating, Morningglory",[5]; [14],100
same,"Plant response rating, Morningglory",[5]; [15],10
same,"Plant response rating, Morningglory",[5]; [16],70
same,Pigweed plant response rating,[6]; [13],90
same,"Plant response rating, Pigweed",[6]; [14],100
same,"Plant response rating, Pigweed",[6]; [15],100
same,"Plant response rating, Pigweed",[6]; [16],100
same,Velvetleaf plant response rating,[7]; [13],100
same,"Plant response rating, Velvetleaf",[7]; [14],100
same,"Plant response rating, Velvetleaf",[7]; [15],80
same,"Plant response rating, Velvetleaf",[7]; [16],90
same,Wheat plant response rating,[8]; [13],0
same,"Plant response rating, Wheat",[8]; [14],0
same,"Plant response rating, Wheat",[8]; [16],0
same,"Plant response rating, Canarygrass",[9]; [17],0
same,"Plant response rating, Canarygrass",[9]; [18],0
same,"Plant response rating, Canarygrass",[9]; [19],0
same,"Plant response rating, Canarygrass",[9]; [20],0
same,"Plant response rating, Chickweed",[10]; [17],60
same,"Plant response rating, Chickweed",[10]; [18],65
same,"Plant response rating, Chickweed",[10]; [19],80
same,"Plant response rating, Chickweed",[10]; [20],95
same,"Plant response rating, Windgrass",[11]; [17],10
same,"Plant response rating, Windgrass",[11]; [18],30
same,"Plant response rating, Windgrass",[11]; [19],40
same,"Plant response rating, Windgrass",[11]; [20],60
same,"Plant response rating, Barley",[12]; [17],0
same,"Plant response rating, Barley",[12]; [18],0
same,"Plant response rating, Barley",[12]; [19],0
same,"Plant response rating, Barley",[12]; [20],0

# Reference: patent publication US8952024B2, “Herbicidal pyrimidone derivatives” (E I du Pont de Nemours and Company, priority 2009, dated 2015)
